Experimental data from patent US10426782B2, “Pharmaceutical formulations of a pan-RAF kinase inhibitor and processes for their preparation” (Millennium Pharmaceuticals, Inc., priority 2014, dated 2019).

Tests used:
Format in all cases: physicochemical
log p of Compound 1 = assay: log p of Compound 1
Solubility of Compound 1 = assay: Solubility of Compound 1
[1] = Thermal gravimetric analysis (TGA); details: elevated temperatures below 200° C.
Description: A suitable hot melt extruder (e.g. twin screw, Leistritz Nano-16 mm or Micro-18 mm) is set up with the appropriate supporting equipment, including a cooling conveyor (e.g., Domer model 220M060600D0169 or Nara TBC-309-DC) and feeder with auger (e.g., K-Tron Gravimeteric Feeder e.g., with dual flight 20 mm auger). Example processing parameters are as follows: feed rate: 2.0 kg/hr; screw speed: 250 rpm; and barrel temperature: 170, 140, 90, 50° C. or 1.0 kg/hr; screw speed: 275 rpm; and barrel temperature: 175, 140, 90, 50° C.

- logP (log p of Compound 1): 3.63
- solubility (Solubility of Compound 1): < 1 mg/mL
- thermal stability by TGA [1]: relatively stable
Structure (SMILES): C[C@@H](NC(=O)c1ncnc(N)c1Cl)c1ncc(C(=O)Nc2cc(C(F)(F)F)c(Cl)cn2)s1 [Compound 1, (R)-2-(1-(6-amino-5-chloropyrimidine-4-carboxamido)ethyl)-N-(5-chloro-4-(trifluoromethyl)pyridin-2-yl)thiazole-5-carboxamide]
